≈ marks a conversion by molar mass, not a printed value. *1 amine or outer side, *2 acyl side, *3 side chain or, on linkers, in order; H or OH if unused. Where a SMILES comes first, the peptide text is derived from it. Bridges are numbered along the chain shown (N, C = ends). [ ]: non-standard residue; d: D form. The star is where a group is joined. hTyr(3S-OH,4S-OH,3'-OSO3H) = N[C@H](C(=O)O)[C@H](O)[C@@H](O)c1ccc(O)c(OS(=O)(=O)O)c1; Orn(4R-OH,5R-OH) = O=C([C@H](C[C@@H](O)[C@@H](O)N[*:3])N[*:1])[*:2]; Pro(3S-OH,4S-Me) = C[C@H]1CN[C@H](C(=O)O)[C@H]1O; X1 = CCCCCOc1ccc(-c2cc(-c3ccc(C(=O)*)cc3)no2)cc1; Gln(3R-OH) = NC(=O)C[C@@H](O)[C@H](N)C(=O)O; Hyp = O=C(O)[C@@H]1C[C@@H](O)CN1
Tests used:
Assay type in all cases: functional
Saccharomyces cerevisiae [1] = test: Antimicrobial activity against Saccharomyces cerevisiae BY4742 containing Fusarium solani fks1-FS453-649 with F639 mutant after 24 hrs by broth microdilution assay; conditions: BY4742, 24 h
Saccharomyces cerevisiae [2] = test: Antimicrobial activity against Saccharomyces cerevisiae BY4742 containing Fusarium solani fks1617-649 hybrid after 24 hrs by broth microdilution assay; conditions: BY4742, 24 h
Nakaseomyces glabratus [3] = test: Antimicrobial activity against Candida glabrata containing fsk2-L588P/F639V mutant after 24 hrs by broth microdilution assay
Saccharomyces cerevisiae [4] = test: Antimicrobial activity against Saccharomyces cerevisiae BY4742 containing Candida glabrata fks1-CgR453-649 hybrid after 24 hrs by broth microdilution assay; conditions: BY4742, 24 h
Saccharomyces cerevisiae [5] = test: Antimicrobial activity against Saccharomyces cerevisiae BY4742 containing Fusarium solani fks1617-649 with F639 mutant after 24 hrs by broth microdilution assay; conditions: BY4742, 24 h
Saccharomyces cerevisiae [6] = test: Antimicrobial activity against Saccharomyces cerevisiae BY4742 containing Aspergillus fumigatus fks1delta453-649 hybrid after 24 hrs by broth microdilution assay; conditions: BY4742, 24 h
Saccharomyces cerevisiae [7] = test: Antimicrobial activity against Saccharomyces cerevisiae BY4742 fks1-F639Y mutant after 24 hrs by broth microdilution assay; conditions: BY4742, 24 h
Saccharomyces cerevisiae [8] = test: Antimicrobial activity against Saccharomyces cerevisiae BY4742 transfected with Scedosporium prolificans FSK1 gene sequence after 24 hrs by broth microdilution assay; conditions: BY4742, 24 h
Nakaseomyces glabratus [9] = test: Antimicrobial activity against Candida glabrata containing FSK2 after 24 hrs by broth microdilution assay
Saccharomyces cerevisiae [10] = test: Antimicrobial activity against Saccharomyces cerevisiae BY4742 fks1delta617-649::URA3 deletant after 24 hrs by broth microdilution assay; conditions: BY4742, 24 h
Saccharomyces cerevisiae [11] = test: Antimicrobial activity against Saccharomyces cerevisiae BY4742 containing Aspergillus fumigatus fks1617-649 hybrid after 24 hrs by broth microdilution assay; conditions: BY4742, 24 h
Saccharomyces cerevisiae [12] = test: Antimicrobial activity against Saccharomyces cerevisiae BY4742 containing Candida glabrata fks1-CgS453-649 hybrid after 24 hrs by broth microdilution assay; conditions: BY4742, 24 h
Saccharomyces cerevisiae [13] = test: Antimicrobial activity against Saccharomyces cerevisiae BY4742 fks1-F639F wild type after 24 hrs by broth microdilution assay; conditions: BY4742, 24 h
Saccharomyces cerevisiae [14] = test: Antimicrobial activity against Saccharomyces cerevisiae BY4742 containing Fusarium solani fks1-FS453-649 hybrid after 24 hrs by broth microdilution assay; conditions: BY4742, 24 h

## CCCCCOc1ccc(-c2cc(-c3ccc(C(=O)N[C@H]4C[C@@H](O)[C@@H](O)NC(=O)[C@@H]5[C@@H](O)[C@@H](C)CN5C(=O)[C@H]([C@H](O)CC(N)=O)NC(=O)[C@H]([C@H](O)[C@@H](O)c5ccc(O)c(OS(=O)(=O)O)c5)NC(=O)[C@@H]5C[C@@H](O)CN5C(=O)[C@H]([C@@H](C)O)NC4=O)cc3)no2)cc1 [MICAFUNGIN] (X1-[Orn(4R-OH,5R-OH)]T[Hyp][hTyr(3S-OH,4S-OH,3'-OSO3H)][Gln(3R-OH)][Pro(3S-OH,4S-Me)]; lactam 1-C)
Saccharomyces cerevisiae [1]
  MIC: 0.008 µg/mL (≈ 0.0063 µM)
Saccharomyces cerevisiae [2]
  MIC: 0.25 µg/mL (≈ 0.197 µM)
Nakaseomyces glabratus [3]
  MIC: 0.062 µg/mL (≈ 0.0488 µM)
Saccharomyces cerevisiae [4]
  MIC: 0.062 µg/mL (≈ 0.0488 µM)
Saccharomyces cerevisiae [5]
  MIC: 0.031 µg/mL (≈ 0.0244 µM)
Saccharomyces cerevisiae [6]
  MIC: 0.062 µg/mL (≈ 0.0488 µM)
Saccharomyces cerevisiae [7]
  MIC: 0.5 µg/mL (≈ 0.394 µM)
Saccharomyces cerevisiae [8]
  MIC: 0.062 µg/mL (≈ 0.0488 µM)
Nakaseomyces glabratus [9]
  MIC: 0.031 µg/mL (≈ 0.0244 µM)
Saccharomyces cerevisiae [10]
  MIC: 0.062 µg/mL (≈ 0.0488 µM)
Saccharomyces cerevisiae [11]
  MIC: 0.031 µg/mL (≈ 0.0244 µM)
Saccharomyces cerevisiae [12]
  MIC: 0.016 µg/mL (≈ 0.0126 µM)
Saccharomyces cerevisiae [13]
  MIC: 0.062 µg/mL (≈ 0.0488 µM)
Saccharomyces cerevisiae [14]
  MIC: 0.031 µg/mL (≈ 0.0244 µM)

## CC[C@H](C)C[C@H](C)CCCCCCCCC(=O)N[C@H]1C[C@@H](O)[C@@H](NCCN)NC(=O)[C@@H]2[C@@H](O)CCN2C(=O)[C@H]([C@H](O)CCN)NC(=O)[C@H]([C@H](O)[C@@H](O)c2ccc(O)cc2)NC(=O)[C@@H]2C[C@@H](O)CN2C(=O)[C@H]([C@@H](C)O)NC1=O [CASPOFUNGIN]
Saccharomyces cerevisiae [1]
  MIC: 0.001 µg/mL (≈ 0.000915 µM)
Saccharomyces cerevisiae [2]
  MIC: 0.25 µg/mL (≈ 0.229 µM)
Nakaseomyces glabratus [3]
  MIC: 0.5 µg/mL (≈ 0.457 µM)
Saccharomyces cerevisiae [4]
  MIC: 0.25 µg/mL (≈ 0.229 µM)
Saccharomyces cerevisiae [5]
  MIC: 0.008 µg/mL (≈ 0.00732 µM)
Saccharomyces cerevisiae [6]
  MIC: 0.002 µg/mL (≈ 0.00183 µM)
Saccharomyces cerevisiae [7]
  MIC: 0.5 µg/mL (≈ 0.457 µM)
Saccharomyces cerevisiae [8]
  MIC: 0.031 µg/mL (≈ 0.0284 µM)
Nakaseomyces glabratus [9]
  MIC: 0.062 µg/mL (≈ 0.0567 µM)
Saccharomyces cerevisiae [10]
  MIC: 0.002 µg/mL (≈ 0.00183 µM)
Saccharomyces cerevisiae [11]
  MIC: 0.008 µg/mL (≈ 0.00732 µM)
Saccharomyces cerevisiae [12]
  MIC: 0.031 µg/mL (≈ 0.0284 µM)
Saccharomyces cerevisiae [13]
  MIC: 0.031 µg/mL (≈ 0.0284 µM)
Saccharomyces cerevisiae [14]
  MIC: 0.008 µg/mL (≈ 0.00732 µM)

Reference: ChEMBL document CHEMBL1629680, “Role for Fks1 in the intrinsic echinocandin resistance of Fusarium solani as evidenced by hybrid expression in Saccharomyces cerevisiae” (2009)
